# According to PubChem BioAssay AID256 (DTP/NCI, 2004):
# “And” between values parts separate entries of the source, which are not always exact repeats. Identical values can stand only once. Inconclusive results and toxic doses are left out.
# System: CD2F1 mice, L1210 leukemia ip, survival T/C
# Test: NCI In Vivo Anticancer Drug Screen. Data for tumor model L1210 Leukemia (intraperitoneal) in CD2F1 (CDF1) mice
# Settings: higher = longer survival
# Summary of the method: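 Read-out first: treated-group measurement over vehicle-control measurement, expressed as a ratio. Animals bore a transplanted tumor line and were dosed with compound or vehicle.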
# [1] = endpoint: mean survival time, dose: 50.0 mg/kg/injection, schedule: Q01DX009 (ip), vehicle: saline with Tween-80
# [2] = endpoint: mean survival time, dose: 100.0 mg/kg/injection, schedule: Q01DX009 (ip), vehicle: saline with Tween-80
# [3] = endpoint: mean survival time, dose: 200.0 mg/kg/injection, schedule: Q01DX009 (ip), vehicle: saline with Tween-80
# [4] = endpoint: mean survival time, dose: 400.0 mg/kg/injection, schedule: Q01DX009 (ip), vehicle: saline with Tween-80
# [5] = endpoint: mean survival time, dose: 200.0 mg/kg/injection, schedule: Q01DX009 (ip), vehicle: saline
# [6] = endpoint: mean survival time, dose: 100.0 mg/kg/injection, schedule: Q01DX001 (ip), vehicle: saline with Tween-80
# [7] = endpoint: mean survival time, dose: 200.0 mg/kg/injection, schedule: Q01DX001 (ip), vehicle: saline with Tween-80
# [8] = endpoint: mean survival time, dose: 400.0 mg/kg/injection, schedule: Q01DX001 (ip), vehicle: saline with Tween-80
# [9] = endpoint: mean survival time, dose: 12.5 mg/kg/injection, schedule: Q01DX009 (ip), vehicle: saline with Tween-80
# [10] = endpoint: mean survival time, dose: 25.0 mg/kg/injection, schedule: Q01DX009 (ip), vehicle: saline with Tween-80
# [11] = endpoint: mean survival time, dose: 100.0 mg/kg/injection, schedule: Q04DX003 (ip), vehicle: saline with Tween-80
# [12] = endpoint: mean survival time, dose: 200.0 mg/kg/injection, schedule: Q04DX003 (ip), vehicle: saline with Tween-80
# [13] = endpoint: mean survival time, dose: 400.0 mg/kg/injection, schedule: Q04DX003 (ip), vehicle: saline with Tween-80
# [14] = endpoint: mean survival time, dose: 100.0 mg/kg/injection, schedule: Q04DX003 (ip), vehicle: saline
# [15] = endpoint: mean survival time, dose: 200.0 mg/kg/injection, schedule: Q04DX003 (ip), vehicle: saline
# [16] = endpoint: mean survival time, dose: 400.0 mg/kg/injection, schedule: Q04DX003 (ip), vehicle: saline
structure (smiles),measurement,setting,value
C[N+](C)(C)CC1CS1 (stereo not given),T/C,"endpoint: mean survival time, dose: 4.5 mg/kg/injection, schedule: Q01DX009 (ip), vehicle: saline sonified",96 % of control
same,T/C,"endpoint: mean survival time, dose: 4.5 mg/kg/injection, schedule: Q04DX003 (ip), vehicle: saline",98 % of control
same,T/C,"endpoint: mean survival time, dose: 9.0 mg/kg/injection, schedule: Q01DX009 (ip), vehicle: saline sonified",94 % of control
same,T/C,"endpoint: mean survival time, dose: 9.0 mg/kg/injection, schedule: Q04DX003 (ip), vehicle: saline",98 % of control
same,T/C,"endpoint: mean survival time, dose: 18.0 mg/kg/injection, schedule: Q01DX009 (ip), vehicle: saline sonified",92 % of control
same,T/C,"endpoint: mean survival time, dose: 18.0 mg/kg/injection, schedule: Q04DX003 (ip), vehicle: saline",95 % of control
CCN(CC)CC(=O)Nc1cccc2c1C(=O)c1c(c(O)c3ccccc3c1O)C2=O,T/C,"endpoint: mean survival time, dose: 6.0 mg/kg/injection, schedule: Q04DX003 (ip), vehicle: saline with Tween-80",94 % of control
same,T/C,"endpoint: mean survival time, dose: 12.0 mg/kg/injection, schedule: Q04DX003 (ip), vehicle: saline with Tween-80",100 % of control
same,T/C,"endpoint: mean survival time, dose: 24.0 mg/kg/injection, schedule: Q04DX003 (ip), vehicle: saline with Tween-80",96 % of control
same,T/C,"endpoint: mean survival time, dose: 48.0 mg/kg/injection, schedule: Q04DX003 (ip), vehicle: saline with Tween-80",98 % of control
CCCn1c2cc([N+](=O)[O-])ccc2c(=O)c2ccc3ccccc3c21,T/C,[1],97 % of control
same,T/C,[2],104 % of control
same,T/C,[3],101 % of control
CN(C)c1ccc(N=Nc2cccc(C(=O)[O-])c2)cc1.CN(C)c1ccc(N=Nc2cccc(C(=O)[O-])c2)cc1.NC1CCCCC1N.O=[N+]([O-])O.[Pt+4],T/C,"endpoint: median survival time, dose: 3.12 mg/kg/injection, schedule: Q04DX003 (ip), vehicle: saline with Tween-80",104 % of control and 108 % of control
same,T/C,"endpoint: median survival time, dose: 6.25 mg/kg/injection, schedule: Q04DX003 (ip), vehicle: saline with Tween-80",105 % of control and 110 % of control
same,T/C,"endpoint: median survival time, dose: 12.5 mg/kg/injection, schedule: Q04DX003 (ip), vehicle: saline with Tween-80",120 % of control and 105 % of control
same,T/C,"endpoint: median survival time, dose: 25.0 mg/kg/injection, schedule: Q04DX003 (ip), vehicle: saline with Tween-80",110 % of control
same,T/C,"endpoint: median survival time, dose: 100.0 mg/kg/injection, schedule: Q04DX003 (ip), vehicle: saline with Tween-80",212 % of control and 313 % of control
same,T/C,"endpoint: median survival time, dose: 200.0 mg/kg/injection, schedule: Q04DX003 (ip), vehicle: saline with Tween-80",361 % of control
C(=C\c1cccnc1)/c1ccncc1,T/C,[2],97 % of control
same,T/C,[3],95 % of control
same,T/C,[4],106 % of control
C/C(=N\O)c1ccc2[nH]c(C)cc(=O)c2c1,T/C,"endpoint: mean survival time, dose: 37.5 mg/kg/injection, schedule: Q01DX009 (ip), vehicle: saline",97 % of control
same,T/C,"endpoint: mean survival time, dose: 75.0 mg/kg/injection, schedule: Q01DX009 (ip), vehicle: saline",97 % of control
same,T/C,"endpoint: mean survival time, dose: 75.0 mg/kg/injection, schedule: Q04DX003 (ip), vehicle: saline",95 % of control
same,T/C,"endpoint: mean survival time, dose: 150.0 mg/kg/injection, schedule: Q01DX009 (ip), vehicle: saline",92 % of control
same,T/C,"endpoint: mean survival time, dose: 150.0 mg/kg/injection, schedule: Q04DX003 (ip), vehicle: saline",95 % of control
same,T/C,"endpoint: mean survival time, dose: 300.0 mg/kg/injection, schedule: Q04DX003 (ip), vehicle: saline",93 % of control
CCOC(=O)C(=O)O,T/C,[5],104 % of control
CCCCCCCCCCCCCCCCCCCOc1ccc(OCCCCCCCCCC)cc1,T/C,[6],95 % of control
same,T/C,[7],86 % of control
same,T/C,[8],86 % of control
Cc1cc(NC(=O)NCc2ccc(N3C(N)=NC(N)=NC3(C)C)cc2)ccc1S(=O)(=O)F,T/C,[9],101 % of control
same,T/C,[10],106 % of control
same,T/C,[1],104 % of control
same,T/C,[2],123 % of control
O=C(c1ccccc1)c1cn(C2CCCCC2)c(-c2ccccc2)c1NC1CCCCC1,T/C,[11],87 % of control
same,T/C,[12],87 % of control
same,T/C,[13],94 % of control
CC(=O)Nc1ccc2c(c1)CCC2=O,T/C,[6],91 % of control
same,T/C,[7],95 % of control
same,T/C,[8],98 % of control
FC(F)(F)COP1(OCC(F)(F)F)=NP(OCC(F)(F)F)(OCC(F)(F)F)=NP(c2ccccc2)(c2ccccc2)=N1,T/C,[14],102 % of control
same,T/C,[15],100 % of control
same,T/C,[16],100 % of control
CC(=O)[CH-]C(C)=O.CC(=O)[CH-]C(C)=O.CC(N)CN.[Ni+2],T/C,"endpoint: mean survival time, dose: 50.0 mg/kg/injection, schedule: Q01DX009 (ip), vehicle: other",100 % of control
O=C(O)c1ccc(C(=O)O)c(C(=O)O)c1.[NH-]C1CCCCCC1[NH-].[Pt+2],T/C,"endpoint: mean survival time, dose: 3.75 mg/kg/injection, schedule: Q04DX003 (ip), vehicle: sodium bicarbonate",159 % of control
same,T/C,"endpoint: mean survival time, dose: 7.5 mg/kg/injection, schedule: Q04DX003 (ip), vehicle: sodium bicarbonate",156 % of control and 250 % of control
same,T/C,"endpoint: mean survival time, dose: 15.0 mg/kg/injection, schedule: Q04DX003 (ip), vehicle: sodium bicarbonate",200 % of control and 219 % of control
same,T/C,"endpoint: mean survival time, dose: 30.0 mg/kg/injection, schedule: Q04DX003 (ip), vehicle: sodium bicarbonate",105 % of control
CCCCCCCCSC1=C(Cl)C(=O)C(OC)=C(OC)C1=O,T/C,"endpoint: mean survival time, dose: 1.5 mg/kg/injection, schedule: Q01DX009 (ip), vehicle: saline with Tween-80",95 % of control
same,T/C,"endpoint: mean survival time, dose: 3.0 mg/kg/injection, schedule: Q01DX009 (ip), vehicle: saline with Tween-80",98 % of control
same,T/C,"endpoint: mean survival time, dose: 3.13 mg/kg/injection, schedule: Q01DX009 (ip), vehicle: saline with Tween-80",94 % of control
same,T/C,"endpoint: mean survival time, dose: 6.25 mg/kg/injection, schedule: Q01DX009 (ip), vehicle: saline with Tween-80",89 % of control and 98 % of control
same,T/C,[9],96 % of control and 104 % of control
same,T/C,[10],96 % of control and 102 % of control
Cc1ccc(Oc2ccc([N+](=O)[O-])cc2)cc1,T/C,"endpoint: mean survival time, dose: 50.0 mg/kg/injection, schedule: Q04DX003 (ip), vehicle: saline",101 % of control
same,T/C,[14],100 % of control
same,T/C,[15],94 % of control
Cc1ccc(C)c(C(C)NC2=NCCO2)c1 (stereo not given),T/C,"endpoint: mean survival time, dose: 12.5 mg/kg/injection, schedule: Q04DX003 (ip), vehicle: saline with Tween-80",94 % of control
same,T/C,"endpoint: mean survival time, dose: 25.0 mg/kg/injection, schedule: Q04DX003 (ip), vehicle: saline with Tween-80",93 % of control
same,T/C,"endpoint: mean survival time, dose: 50.0 mg/kg/injection, schedule: Q04DX003 (ip), vehicle: saline with Tween-80",86 % of control and 92 % of control
same,T/C,[11],91 % of control
COC(=O)CNC(=O)C(Cc1ccc(OCc2ccccc2)cc1)NC(=O)OC(C)(C)C (stereo not given),T/C,[11],91 % of control
same,T/C,[12],91 % of control
same,T/C,[13],95 % of control
NCc1cccc([N+](=O)[O-])c1,T/C,[14],106 % of control
same,T/C,[15],109 % of control
same,T/C,[16],98 % of control
N=c1c2ccccc2nnn1Cc1ccccc1,T/C,[6],98 % of control
same,T/C,[7],96 % of control
same,T/C,[8],93 % of control
NC(=O)N/N=C/C(c1ccccc1)c1ccccc1,T/C,[2],105 % of control
same,T/C,[3],94 % of control
same,T/C,[4],103 % of control
O=c1ccnc(C(F)(F)F)[nH]1,T/C,"endpoint: mean survival time, dose: 100.0 mg/kg/injection, schedule: Q01DX009 (ip), vehicle: saline",101 % of control
same,T/C,[5],95 % of control
COc1cc2c(cc1OC)C(CCNC(=O)CCCO)NCC2 (stereo not given),T/C,"endpoint: mean survival time, dose: 100.0 mg/kg/injection, schedule: Q01DX001 (ip), vehicle: saline sonified",97 % of control
same,T/C,"endpoint: mean survival time, dose: 100.0 mg/kg/injection, schedule: Q01DX009 (ip), vehicle: saline sonified",98 % of control
same,T/C,"endpoint: mean survival time, dose: 200.0 mg/kg/injection, schedule: Q01DX001 (ip), vehicle: saline sonified",100 % of control
same,T/C,"endpoint: mean survival time, dose: 200.0 mg/kg/injection, schedule: Q01DX009 (ip), vehicle: saline sonified",95 % of control
same,T/C,"endpoint: mean survival time, dose: 400.0 mg/kg/injection, schedule: Q01DX001 (ip), vehicle: saline sonified",100 % of control
same,T/C,"endpoint: mean survival time, dose: 400.0 mg/kg/injection, schedule: Q01DX009 (ip), vehicle: saline sonified",91 % of control
NCC1OC(CO)C(O)C1O (stereo not given),T/C,[14],91 % of control
same,T/C,[15],100 % of control
same,T/C,[16],104 % of control
COc1ccc(OCCOC(=O)Nc2cc(Cl)c(OC)cc2OC)cc1,T/C,[9],106 % of control
same,T/C,[10],103 % of control
same,T/C,[1],106 % of control
same,T/C,[2],92 % of control
same,T/C,[3],92 % of control
O=CC(CO)OC(C=O)n1ccc(=O)[nH]c1=O (stereo not given),T/C,"endpoint: median survival time, dose: 50.0 mg/kg/injection, schedule: Q04DX003 (ip), vehicle: saline",116 % of control
same,T/C,"endpoint: median survival time, dose: 200.0 mg/kg/injection, schedule: Q04DX003 (ip), vehicle: saline",178 % of control
same,T/C,"endpoint: median survival time, dose: 400.0 mg/kg/injection, schedule: Q04DX003 (ip), vehicle: saline",285 % of control
same,T/C,"endpoint: median survival time, dose: 800.0 mg/kg/injection, schedule: Q04DX003 (ip), vehicle: saline",261 % of control
